{
  "source": "paper PMC5931191",
  "about": "“Reversible stapling of unprotected peptides via chemoselective methionine bis-alkylation/dealkylation” (Chemical Science, 2018)",
  "settings_in_all_cases": "the molecule shown is the open-chain precursor, MeCN/H2O 30:70 (SI: 1:3) + 1% HCOOH, small amount of DMF, 10.0 mM, 25.0 °C",
  "key": {"[1]": {"test": "Met bis-alkylation (bis-sulfonium staple) of one unprotected peptide with different dihalide linkers (1.2 equiv), 1% HCOOH (pH ~3), 24 h"}, "[2]": {"test": "Met bis-alkylation (bis-sulfonium staple) with linker c, 1,4-bis(bromomethyl)benzene (1.2 equiv), 1% HCOOH (pH ~3), 24 h"}, "[3]": {"test": "Met bis-alkylation (bis-sulfonium staple) with linker a, 1,3-bis(bromomethyl)benzene (1.2 equiv), 1% HCOOH (pH ~3), 24 h"}},
  "data": [
    {"smiles": "CSCC[C@H](NC(=O)[C@H](CC(=O)O)NC(=O)CNC(=O)[C@H](CCCNC(=N)N)NC(=O)[C@H](CC[S+](C)Cc1ccc(-c2ccc(CBr)cc2)cc1)NC(=O)[C@H](Cc1c[nH]c2ccccc12)NC(C)=O)C(N)=O", "note": "(stereo partly shown)", "values": [
      {"measurement": "ring closure, conversion by HPLC", "setting": "[1]; 29-membered ring", "result": 60, "unit": "%"}
    ]},
    {"smiles": "CSCC[C@H](NC(=O)[C@H](CC(=O)O)NC(=O)CNC(=O)[C@H](CCCNC(=N)N)NC(=O)[C@H](CC[S+](C)Cc1nc2ccccc2nc1CBr)NC(=O)[C@H](Cc1c[nH]c2ccccc12)NC(C)=O)C(N)=O", "note": "(stereo partly shown)", "values": [
      {"measurement": "ring closure, conversion by HPLC", "setting": "[1]; 23-membered ring", "result": 53, "unit": "%"}
    ]},
    {"smiles": "CSCC[C@H](NC(=O)[C@H](CC(=O)O)NC(=O)CNC(=O)[C@H](CCCNC(=N)N)NC(=O)[C@H](CC(=O)O)NC(=O)CNC(=O)[C@H](CCCNC(=N)N)NC(=O)[C@H](CC[S+](C)Cc1ccc(CBr)cc1)NC(=O)[C@H](Cc1c[nH]c2ccccc12)NC(C)=O)C(N)=O", "note": "(stereo partly drawn) [Ac-Trp-Met-Arg-Gly-Asp-Arg-Gly-Asp-Met-NH2]", "values": [
      {"measurement": "ring closure, conversion by HPLC", "setting": "[2]; 34-membered ring", "result": 54, "unit": "%"}
    ]},
    {"smiles": "CSCC[C@H](NC(=O)[C@H](CC(=O)O)NC(=O)CNC(=O)[C@H](CCCNC(=N)N)NC(=O)[C@H](CC(=O)O)NC(=O)CNC(=O)[C@H](CCCNC(=N)N)NC(=O)[C@H](CC[S+](C)Cc1cccc(CBr)c1)NC(=O)[C@H](Cc1c[nH]c2ccccc12)NC(C)=O)C(N)=O", "note": "(stereo partly drawn) [Ac-Trp-Met-Arg-Gly-Asp-Arg-Gly-Asp-Met-NH2]", "values": [
      {"measurement": "ring closure, conversion by HPLC", "setting": "[3]; 33-membered ring", "result": 85, "unit": "%"}
    ]},
    {"smiles": "CSCC[C@H](NC(=O)[C@H](CC(=O)O)NC(=O)CNC(=O)[C@H](CCCNC(=N)N)NC(=O)[C@H](CC[S+](C)Cc1ccccc1CBr)NC(=O)[C@H](Cc1c[nH]c2ccccc12)NC(C)=O)C(N)=O", "note": "(stereo partly drawn) [Ac-Trp-Met-Arg-Gly-Asp-Met-NH2 + 1,2-bis(bromomethyl)benzene]", "values": [
      {"measurement": "ring closure, conversion by HPLC", "setting": "[1]; 23-membered ring", "result": 58, "unit": "%"}
    ]},
    {"smiles": "CSCC[C@H](NC(=O)[C@H](CC(=O)O)NC(=O)CNC(=O)[C@H](CCCNC(=N)N)NC(=O)[C@H](CC[S+](C)Cc1cccc(CBr)c1)NC(=O)[C@H](Cc1c[nH]c2ccccc12)NC(C)=O)C(N)=O", "note": "(stereo partly drawn) [Ac-Trp-Met-Arg-Gly-Asp-Met-NH2 + 1,3-bis(bromomethyl)benzene]", "values": [
      {"measurement": "ring closure, conversion by HPLC", "setting": "[1]; 24-membered ring", "result": 88, "unit": "%"}
    ]},
    {"smiles": "CSCC[C@H](NC(=O)[C@H](CC(=O)O)NC(=O)CNC(=O)[C@H](CCCNC(=N)N)NC(=O)[C@H](CC[S+](C)Cc1ccc(CBr)cc1)NC(=O)[C@H](Cc1c[nH]c2ccccc12)NC(C)=O)C(N)=O", "note": "(stereo partly drawn) [Ac-Trp-Met-Arg-Gly-Asp-Met-NH2 + 1,4-bis(bromomethyl)benzene]", "values": [
      {"measurement": "ring closure, conversion by HPLC", "setting": "[1]; 25-membered ring", "result": 49, "unit": "%"}
    ]},
    {"smiles": "CSCC[C@H](NC(=O)[C@H](CC(=O)O)NC(=O)CNC(=O)[C@H](CCCNC(=N)N)NC(=O)[C@H](CC[S+](C)CC(=O)C(=O)CBr)NC(=O)[C@H](Cc1c[nH]c2ccccc12)NC(C)=O)C(N)=O", "note": "(stereo partly drawn) [Ac-Trp-Met-Arg-Gly-Asp-Met-NH2 + 1,4-dibromobutane-2,3-dione]", "values": [
      {"measurement": "ring closure, conversion by HPLC", "setting": "[1]; 23-membered ring", "result": 64, "unit": "%"}
    ]},
    {"smiles": "CSCC[C@H](NC(=O)[C@H](CC(=O)O)NC(=O)CNC(=O)[C@H](CCCNC(=N)N)NC(=O)[C@H](CC[S+](C)CCCCBr)NC(=O)[C@H](Cc1c[nH]c2ccccc12)NC(C)=O)C(N)=O", "note": "(stereo partly drawn) [Ac-Trp-Met-Arg-Gly-Asp-Met-NH2 + 1,4-dibromobutane]", "values": [
      {"measurement": "ring closure, conversion by HPLC", "setting": "[1]; 23-membered ring", "result": 0, "unit": "%"}
    ]},
    {"smiles": "CSCC[C@H](NC(=O)[C@H](CC(=O)O)NC(=O)CNC(=O)[C@H](CCCNC(=N)N)NC(=O)[C@H](CC[S+](C)CCCCI)NC(=O)[C@H](Cc1c[nH]c2ccccc12)NC(C)=O)C(N)=O", "note": "(stereo partly drawn) [Ac-Trp-Met-Arg-Gly-Asp-Met-NH2 + 1,4-diiodobutane]", "values": [
      {"measurement": "ring closure, conversion by HPLC", "setting": "[1]; 23-membered ring", "result": 0, "unit": "%"}
    ]},
    {"smiles": "CSCC[C@H](NC(=O)[C@H](CC(=O)O)NC(=O)CNC(=O)[C@H](CCCNC(=N)N)NC(=O)[C@H](CC[S+](C)C/C=C/CBr)NC(=O)[C@H](Cc1c[nH]c2ccccc12)NC(C)=O)C(N)=O", "note": "(stereo partly drawn) [Ac-Trp-Met-Arg-Gly-Asp-Met-NH2 + (E)-1,4-dibromobut-2-ene]", "values": [
      {"measurement": "ring closure, conversion by HPLC", "setting": "[1]; 23-membered ring", "result": 93, "unit": "%"}
    ]},
    {"smiles": "CSCC[C@H](NC(=O)[C@H](CC(C)C)NC(=O)[C@H](CS)NC(=O)[C@H](CC[S+](C)Cc1ccc(CBr)cc1)NC(=O)[C@H](Cc1c[nH]c2ccccc12)NC(C)=O)C(=O)N[C@@H](C)C(N)=O", "note": "(stereo partly drawn) [Ac-Trp-Met-Cys-Leu-Met-Ala-NH2]", "values": [
      {"measurement": "ring closure, conversion by HPLC", "setting": "[2]; 22-membered ring", "result": "> 95", "unit": "%"}
    ]},
    {"smiles": "CSCC[C@H](NC(=O)[C@H](CC(C)C)NC(=O)[C@H](CS)NC(=O)[C@H](CC[S+](C)Cc1cccc(CBr)c1)NC(=O)[C@H](Cc1c[nH]c2ccccc12)NC(C)=O)C(=O)N[C@@H](C)C(N)=O", "note": "(stereo partly drawn) [Ac-Trp-Met-Cys-Leu-Met-Ala-NH2]", "values": [
      {"measurement": "ring closure, conversion by HPLC", "setting": "[3]; 21-membered ring", "result": "> 95", "unit": "%"}
    ]},
    {"smiles": "CSCC[C@H](NC(=O)[C@H](CC(=O)O)NC(=O)[C@@H](NC(=O)[C@H](Cc1c[nH]cn1)NC(=O)[C@H](CC[S+](C)Cc1ccc(CBr)cc1)NC(=O)[C@H](Cc1c[nH]c2ccccc12)NC(C)=O)C(C)C)C(=O)N[C@@H](C)C(N)=O", "note": "(stereo partly drawn) [Ac-Trp-Met-His-Val-Asp-Met-Ala-NH2]", "values": [
      {"measurement": "ring closure, conversion by HPLC", "setting": "[2]; 25-membered ring", "result": 85, "unit": "%"}
    ]},
    {"smiles": "CSCC[C@H](NC(=O)[C@H](CC(=O)O)NC(=O)[C@@H](NC(=O)[C@H](Cc1c[nH]cn1)NC(=O)[C@H](CC[S+](C)Cc1cccc(CBr)c1)NC(=O)[C@H](Cc1c[nH]c2ccccc12)NC(C)=O)C(C)C)C(=O)N[C@@H](C)C(N)=O", "note": "(stereo partly drawn) [Ac-Trp-Met-His-Val-Asp-Met-Ala-NH2]", "values": [
      {"measurement": "ring closure, conversion by HPLC", "setting": "[3]; 24-membered ring", "result": 73, "unit": "%"}
    ]},
    {"smiles": "CSCC[C@H](NC(=O)[C@H](CCC(=O)O)NC(=O)[C@H](CCCCN)NC(=O)[C@H](CC[S+](C)Cc1ccc(CBr)cc1)NC(=O)[C@H](Cc1c[nH]c2ccccc12)NC(C)=O)C(=O)N[C@@H](C)C(N)=O", "note": "(stereo partly drawn) [Ac-Trp-Met-Lys-Glu-Met-Ala-NH2]", "values": [
      {"measurement": "ring closure, conversion by HPLC", "setting": "[2]; 22-membered ring", "result": 73, "unit": "%"}
    ]},
    {"smiles": "CSCC[C@H](NC(=O)[C@H](CCC(=O)O)NC(=O)[C@H](CCCCN)NC(=O)[C@H](CC[S+](C)Cc1cccc(CBr)c1)NC(=O)[C@H](Cc1c[nH]c2ccccc12)NC(C)=O)C(=O)N[C@@H](C)C(N)=O", "note": "(stereo partly drawn) [Ac-Trp-Met-Lys-Glu-Met-Ala-NH2]", "values": [
      {"measurement": "ring closure, conversion by HPLC", "setting": "[3]; 21-membered ring", "result": 85, "unit": "%"}
    ]},
    {"smiles": "CC[C@H](C)[C@H](NC(=O)[C@H](CCCCN)NC(=O)[C@H](CC[S+](C)Cc1ccc(CBr)cc1)NC(=O)[C@H](Cc1c[nH]c2ccccc12)NC(C)=O)C(=O)N[C@@H](CCC(=O)O)C(=O)N[C@@H](CCSC)C(=O)N[C@@H](C)C(N)=O", "note": "(stereo partly drawn) [Ac-Trp-Met-Lys-Ile-Glu-Met-Ala-NH2]", "values": [
      {"measurement": "ring closure, conversion by HPLC", "setting": "[2]; 25-membered ring", "result": 83, "unit": "%"}
    ]},
    {"smiles": "CC[C@H](C)[C@H](NC(=O)[C@H](CCCCN)NC(=O)[C@H](CC[S+](C)Cc1cccc(CBr)c1)NC(=O)[C@H](Cc1c[nH]c2ccccc12)NC(C)=O)C(=O)N[C@@H](CCC(=O)O)C(=O)N[C@@H](CCSC)C(=O)N[C@@H](C)C(N)=O", "note": "(stereo partly drawn) [Ac-Trp-Met-Lys-Ile-Glu-Met-Ala-NH2]", "values": [
      {"measurement": "ring closure, conversion by HPLC", "setting": "[3]; 24-membered ring", "result": 77, "unit": "%"}
    ]},
    {"smiles": "CSCC[C@H](NC(=O)[C@H](Cc1c[nH]cn1)NC(=O)[C@@H]1CCCN1C(=O)[C@H](CC[S+](C)Cc1ccc(CBr)cc1)NC(=O)[C@H](Cc1c[nH]c2ccccc12)NC(C)=O)C(=O)N[C@@H](C)C(N)=O", "note": "(stereo partly drawn) [Ac-Trp-Met-Pro-His-Met-Ala-NH2]", "values": [
      {"measurement": "ring closure, conversion by HPLC", "setting": "[2]; 22-membered ring", "result": 74, "unit": "%"}
    ]},
    {"smiles": "CSCC[C@H](NC(=O)[C@H](Cc1c[nH]cn1)NC(=O)[C@@H]1CCCN1C(=O)[C@H](CC[S+](C)Cc1cccc(CBr)c1)NC(=O)[C@H](Cc1c[nH]c2ccccc12)NC(C)=O)C(=O)N[C@@H](C)C(N)=O", "note": "(stereo partly drawn) [Ac-Trp-Met-Pro-His-Met-Ala-NH2]", "values": [
      {"measurement": "ring closure, conversion by HPLC", "setting": "[3]; 21-membered ring", "result": 84, "unit": "%"}
    ]},
    {"smiles": "CSCC[C@H](NC(=O)CNC(=O)[C@H](Cc1ccc(O)cc1)NC(=O)[C@@H]1CCCN1C(=O)[C@H](CC[S+](C)Cc1cccc(CBr)c1)NC(=O)[C@H](Cc1c[nH]c2ccccc12)NC(C)=O)C(=O)N[C@@H](C)C(N)=O", "note": "(stereo partly drawn) [Ac-Trp-Met-Pro-Tyr-Gly-Met-Ala-NH2]", "values": [
      {"measurement": "ring closure, conversion by HPLC", "setting": "[3]; 24-membered ring", "result": 70, "unit": "%"}
    ]}
  ]
}
